# Laboratory results: US9493537B2, “Compounds with reduced ring size for use in diagnosing and treating melanoma, including metastatic melanoma and methods related to same” (STC.UNM, priority 2009, dated 2016)
# Like-named read-outs stand apart in the source and are kept apart here.
# Experiments:
# [1] = Biodistribution in B16/F1 melanoma-bearing C57 mice; format: in vivo; settings: female, C57, mouse, iv, total radioactivity; for tissue uptake at 4 h: 4 h post-injection; for tissue uptake at 24 h: 24 h post-injection; for tissue uptake at 0.5 h: 0.5 h post-injection
# Experimental: (§1) All the animal studies were conducted in compliance with Institutional Animal Care and Use Committee approval. The mice were housed five animals per cage in sterile micro-isolator cages in a temperature- and humidity-controlled room with a 12-h light/12-h dark schedule. […] C57 mice were subcutaneously inoculated on the right flank with 1×10^6 B16/F1 cells. The weight of tumors reached approximately 0.2 g 10 days post cell inoculation. […] Groups of 5 mice were sacrificed at 0.5, 2, 4 and 24 h post-injection, and tumors and organs of interest were harvested, weighed and counted. Blood values were taken as 6.5% of the whole-body weight. […] The mice were sacrificed at 2 h post-injection. The tumor and organs of interest were harvested, weighed and counted.
# (§2) All animal studies were conducted in compliance with Institutional Animal Care and Use Committee approval. The pharmacokinetics of ^111In-DOTA-GGNle-CycMSHhex and ^111In-DOTA-GENle-CycMSHhex were determined in B16/F1 melanoma-bearing C57 female mice (Harlan, Indianapolis, Ind.). The C57 mice were subcutaneously inoculated with 1×10^6 B16/F1 cells on the right flank for each mouse to generate B16/F1 melanomas. Ten days post inoculation, the tumor weights reached approximately 0.2 g. Each melanoma-bearing mouse was injected with 0.037 MBq of ^111In-DOTA-GGNle-CycMSHhex or ^111In-DOTA-GENle-CycMSHhex via the tail vein. Groups of 5 mice were sacrificed at 0.5, 2, 4 and 24 h post-injection, and tumors and organs of interest were harvested, weighed and counted. Blood values were taken as 6.5% of the whole-body weight. The specificities of the tumor uptake of ^111In-DOTA-GGNle-CycMSHhex and ^111In-DOTA-GENle-CycMSHhex were determined by co-injecting 10 μg (6.07 nmol) of unlabeled NDP-MSH which is a linear α-MSH peptide analogue with picomolar MC1 receptor binding affinity.
# B16/F1 melanoma = assay: as above; format: in vivo
# Experimental: as §1, §2
# [2] = muscle, 0.037 MBq, read-out: Muscle uptake
# [3] = pancreas, 0.037 MBq, read-out: Pancreas uptake
# [4] = skin, 0.037 MBq, read-out: Skin uptake
# [5] = spleen, 0.037 MBq, read-out: Spleen uptake
# [6] = stomach, 0.037 MBq, read-out: Stomach uptake
# [7] = tumor, 0.037 MBq, read-out: Tumor uptake
compound,measurement,setting,value
"CCCC[C@H](NC(=O)CN1CCN(CC(=O)O)CCN(CC(=O)O)CCN(CC(=O)O)CC1)C(=O)N[C@H]1CC(=O)NCCCC[C@@H](C(N)=O)NC(=O)[C@H](Cc2c[nH]c3ccccc23)NC(=O)[C@H](CCCNC(=N)N)NC(=O)[C@@H](Cc2ccccc2)NC(=O)[C@H](Cc2c[nH]cn2)NC1=O [^111In-DOTA-Nle-CycMSHhex, metal not drawn]",tissue uptake at 2 h,"[1]; muscle, 0.037 MBq, 2 h post-injection, read-out: Muscle uptake",0.15 ± 0.08 %ID/g
same,tissue uptake at 4 h,[1]; [2],0.1 ± 0.08 %ID/g
same,tissue uptake at 24 h,[1]; [2],0.03 ± 0.01 %ID/g
same,tissue uptake at 2 h,"[1]; muscle, 2 h post-injection, L-lysine co-injection, read-out: Muscle uptake",0.1 ± 0.08 %ID/g
same,tissue uptake at 2 h,"[1]; muscle, 2 h post-injection, NDP blockade, read-out: Muscle uptake",0.02 ± 0.01 %ID/g
same,tissue uptake at 0.5 h,[1]; [3],1.18 ± 0.38 %ID/g
same,tissue uptake at 2 h,"[1]; pancreas, 0.037 MBq, 2 h post-injection, read-out: Pancreas uptake",0.14 ± 0.02 %ID/g
same,tissue uptake at 4 h,[1]; [3],0.16 ± 0.02 %ID/g
same,tissue uptake at 24 h,[1]; [3],0.23 ± 0.08 %ID/g
same,tissue uptake at 2 h,"[1]; pancreas, 2 h post-injection, L-lysine co-injection, read-out: Pancreas uptake",0.21 ± 0.05 %ID/g
same,tissue uptake at 2 h,"[1]; pancreas, 2 h post-injection, NDP blockade, read-out: Pancreas uptake",0.12 ± 0.02 %ID/g
same,tissue uptake at 0.5 h,[1]; [4],4.11 ± 0.72 %ID/g
same,tissue uptake at 2 h,"[1]; skin, 0.037 MBq, 2 h post-injection, read-out: Skin uptake",0.66 ± 0.23 %ID/g
same,tissue uptake at 4 h,[1]; [4],0.53 ± 0.05 %ID/g
same,tissue uptake at 24 h,[1]; [4],0.64 ± 0.16 %ID/g
same,tissue uptake at 2 h,"[1]; skin, 2 h post-injection, L-lysine co-injection, read-out: Skin uptake",1.02 ± 0.09 %ID/g
same,tissue uptake at 2 h,"[1]; skin, 2 h post-injection, NDP blockade, read-out: Skin uptake",0.29 ± 0.02 %ID/g
same,tissue uptake at 0.5 h,[1]; [5],1.09 ± 0.33 %ID/g
same,tissue uptake at 2 h,"[1]; spleen, 0.037 MBq, 2 h post-injection, read-out: Spleen uptake",0.41 ± 0.13 %ID/g
same,tissue uptake at 4 h,[1]; [5],0.47 ± 0.13 %ID/g
same,tissue uptake at 24 h,[1]; [5],0.32 ± 0.08 %ID/g
same,tissue uptake at 2 h,"[1]; spleen, 2 h post-injection, L-lysine co-injection, read-out: Spleen uptake",0.43 ± 0.07 %ID/g
same,tissue uptake at 2 h,"[1]; spleen, 2 h post-injection, NDP blockade, read-out: Spleen uptake",0.44 ± 0.02 %ID/g
same,tissue uptake at 0.5 h,[1]; [6],3.2 ± 0.98 %ID/g
same,tissue uptake at 2 h,"[1]; stomach, 0.037 MBq, 2 h post-injection, read-out: Stomach uptake",1.25 ± 0.24 %ID/g
same,tissue uptake at 4 h,[1]; [6],1.49 ± 0.12 %ID/g
same,tissue uptake at 24 h,[1]; [6],1.34 ± 0.42 %ID/g
same,tissue uptake at 2 h,"[1]; stomach, 2 h post-injection, L-lysine co-injection, read-out: Stomach uptake",1.64 ± 0.78 %ID/g
same,tissue uptake at 2 h,"[1]; stomach, 2 h post-injection, NDP blockade, read-out: Stomach uptake",0.36 ± 0.14 %ID/g
same,tissue uptake at 0.5 h,[1]; [7],24.9 ± 4.58 %ID/g
same,tissue uptake at 2 h,"[1]; tumor, 0.037 MBq, 2 h post-injection, read-out: Tumor uptake",19.4 ± 1.65 %ID/g
same,tissue uptake at 4 h,[1]; [7],17 ± 2.54 %ID/g
same,tissue uptake at 24 h,[1]; [7],10.5 ± 1.11 %ID/g
same,tissue uptake at 2 h,"[1]; tumor, 2 h post-injection, L-lysine co-injection, read-out: Tumor uptake",14.5 ± 3.25 %ID/g
same,tissue uptake at 2 h,"[1]; tumor, 2 h post-injection, NDP blockade, read-out: Tumor uptake",0.81 ± 0.03 %ID/g
same,dose excreted at 2 h,"[1]; urine, 0.037 MBq, 2 h post-injection, read-out: Urine, percent injected dose",82.2 ± 5.83%
same,tumor uptake with NDP-MSH co-injection as percent of tumor uptake without,"B16/F1 melanoma; 10 μg NDP-MSH, 2 h after dose administration",4.2%
same,Kidneys uptake,B16/F1 melanoma; 0.5 h post-injection,16.20±4.32 % ID/g
same,Tumor uptake,B16/F1 melanoma; 0.5 h post-injection,24.94±4.58 % ID/g
same,Tumor uptake,B16/F1 melanoma; 2 h post-injection,19.39±2.72 % ID/g
same,reduction of kidney uptake by L-lysine co-injection,B16/F1 melanoma; 2 h post-injection,30%
same,renal uptake as percent of that of ^111In-DOTA-GlyGlu-CycMSH,B16/F1 melanoma; 2 h post-injection,72.8%
same,"tumor uptake, times that of ^111In-DOTA-GlyGlu-CycMSH",B16/F1 melanoma; 2 h post-injection,1.86 times
same,Tumor uptake,B16/F1 melanoma; 4 h post-injection,17.01±2.54 % ID/g
same,liver uptake as percent of that of ^99mTc(CO)3-pz-βAla-Nle-cyclo[Asp-His-D-Phe-Arg-Trp-Lys]-NH2,B16/F1 melanoma; 4 h post-injection,7.5%
same,renal uptake as percent of that of ^99mTc(CO)3-pz-βAla-Nle-cyclo[Asp-His-D-Phe-Arg-Trp-Lys]-NH2,B16/F1 melanoma; 4 h post-injection,31.1%
same,renal uptake as percent of that of ^111In-DOTA-GlyGlu-CycMSH,B16/F1 melanoma; 4 h post-injection,82.4%
same,"tumor uptake, times that of ^99mTc(CO)3-pz-βAla-Nle-cyclo[Asp-His-D-Phe-Arg-Trp-Lys]-NH2",B16/F1 melanoma; 4 h post-injection,1.5 times
same,Kidneys uptake,B16/F1 melanoma; 24 h post-injection,9.31±0.91 % ID/g
same,Tumor uptake,B16/F1 melanoma; 24 h post-injection,10.53±1.11 % ID/g
same,tumor activity at 2 h remaining in tumors at 24 h,B16/F1 melanoma; 24 h post-injection,54.3%
